From patent US9522908B2, “Ezrin inhibitors and methods of making and using” (Georgetown University, priority 2010, dated 2016)
pKd: −log10 of the molar value.

Legend:
zebrafish embryos = experiment: Zebrafish embryo development assay; type: in vivo, Zebrafish (Danio rerio)
Description: Animals. Zebrafish (Danio rerio) were raised, maintained and crossed as described before (Westerfield, M. University of Oregon Press, Eugene. Or., 1993). Development of embryos was studied at 28° C. and staging was determined by morphological characteristics (Kimmel, C. B., et al., Dev. Dyn. 203, 253-310 (1995)).
A translation blocking anti-ezrin morpholino oligonucleotide (MO), described and validated by Link et al. (Link, V., et al., J. Cell Sci., 119, 2073-2083 (2006)), MO1, 5′-[…] (SEQ ID NO:1), was synthesized by Gene-Tools, LCC (Philomath, Oreg.). MOs were microinjected into one to four cell stage embryos.
Zebrafish embryos were arrayed, three per well, in 96-well plates. Compounds were added at 1-33 μM concentrations. Embryos were observed, and photographed, at 70% epiboly, 24-28 hours post fertilization (hpf) and 48 hpf.

MNNG, human OS cells = experiment: In vivo experimental lung metastasis model, ezrin independent MNNG cells; design: species or system mice
Description: FIG. 6 illustrates NSC305787 and NSC668394 inhibit in vivo OS metastatic growth in lungs. (A) K7M2 metastatic OS tumor cells (1×10^6) were injected via tail vein. Vehicle (1% DMSO), NSC305787 (240 μg/kg) and NSC668394 (226 μg/kg) were injected 5 days a week intraperitoneally. Kaplan-Meier survival curves show percent survival for NSC305787 and NSC668394 treatment over time. Median survival of vehicle, NSC305787 and NSC668394 treated K7M2 cells were 28.5, 50, and 49 days after tumor cell injection. […] (B) Fluorescence pictures of whole lungs are given. […] (C) GFP expressing ezrin independent MNNG, human OS cells were injected to mice and treated with vehicle (1% DMSO), NSC305787 (240 μg/kg) and NSC668394 (226 μg/kg). Survival of each group is not different probably because MNNG is an ezrin independent cell line. Median survival of vehicle, NSC305787 and NSC668394 treated MNNG cells were 50.5, 49, and 48.5 days after tumor cell injection. (D) Fluorescent images of the lung tissues of this group are given.
GFP expressing K7M2 or MNNG tumor cells (1×10^6) were delivered by tail vein to nude mice. One day after injection, vehicle, NSC305787 (240 μg/kg/inj) and […] (226 μg/kg/inj) were injected 5 days a week intraperitoneally.

[1] = molecular target: T1, recombinant WT ezrin protein (Mus musculus, UniProt P26040); experiment: SPR direct binding to immobilized recombinant WT ezrin (Biacore); details: 5 independent experiments
T1 construct: full-length recombinant ezrin protein was expressed in bacteria; made in house; host or cells: E. coli M15pREP4 (pQE16 vector)
T1 sequence (P26040 whole entry): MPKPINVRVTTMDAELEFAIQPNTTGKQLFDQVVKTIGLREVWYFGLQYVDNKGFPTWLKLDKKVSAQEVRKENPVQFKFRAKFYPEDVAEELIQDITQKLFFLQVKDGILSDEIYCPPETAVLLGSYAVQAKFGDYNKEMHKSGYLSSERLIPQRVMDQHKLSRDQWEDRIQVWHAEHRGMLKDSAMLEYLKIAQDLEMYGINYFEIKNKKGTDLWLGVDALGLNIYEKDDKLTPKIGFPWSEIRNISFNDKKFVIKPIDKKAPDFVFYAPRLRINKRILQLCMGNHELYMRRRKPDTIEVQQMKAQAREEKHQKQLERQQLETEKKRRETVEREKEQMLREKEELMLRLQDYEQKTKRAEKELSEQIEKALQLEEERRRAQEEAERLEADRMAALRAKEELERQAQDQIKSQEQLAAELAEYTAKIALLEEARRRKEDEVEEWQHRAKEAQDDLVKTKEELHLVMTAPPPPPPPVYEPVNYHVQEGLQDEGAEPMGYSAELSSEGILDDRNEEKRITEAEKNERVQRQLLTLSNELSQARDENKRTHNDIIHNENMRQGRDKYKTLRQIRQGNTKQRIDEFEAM
Description: FIG. 7 provides results illustrating the functional activity of select compounds of the present invention on ezrin protein. The chemical structure of the embodied compounds is detailed and the corresponding binding and viability values are listed. The binding potential of select compounds to ezrin was analyzed by using SPR. Recombinant WT ezrin was immobilized onto a Biacore CM5 sensorchip and compounds were injected one-at-a-time at 6 different concentrations. SPR sensograms and KD values were determined using Biacore software. […] The viability and growth inhibition activity of select compounds were determined by treatment of high ezrin expressed K7M2 and low ezrin expressed K12 osteosarcoma cells with a dose range of the select compound for 24 hours. […]
Compounds for initial screening were acquired from 4 libraries (Challenge Set, Diversity Set, Mechanistic Set and Natural Product Set) of the Developmental Therapeutics Program, National Cancer Institute. Their direct ezrin binding potential was analyzed by using Biacore T100 v2.0.3 instrument (GE Healthcare, Piscataway N.J.). […] Existing interactions are measured based on total mass change on the chip surface. Recombinant WT ezrin protein was used as the ligand and immobilized on to a Biacore CM5 sensorchip and compounds were injected one at a time as the binding interactions were recorded. […]

[2] = molecular target: T2, ezrin / poly-A-binding protein 1 (PABP1) interaction (Mus musculus, UniProt P26040); experiment: Ezrin-PABP1 interaction by immunoprecipitation and western blot; type: cell-based; details: cells treated 60 min prior to immunoprecipitation
T2 construct: endogenous in cells; host or cells: K7M2 osteosarcoma cells
T2 sequence (P26040 whole entry): as above
Description: (A) Total cell lysates from K7M2 osteosarcoma cells were immunoprecipitated by using an anti-ezrin antibody. As a control, non-specific total IgG was used. Immunoprecipitates were run on SDS-PAGE and Western Blot was performed using anti-ezrin (lower panel) and anti-PABP1 (upper panel) antibodies. PABP1 protein was detected in immunoprecipitates of ezrin, suggetsing that these two proteins interact with each other in a protein complex. (B) Ezrin-PABP1 interaction was also evaluated in an ELISA experiment where recombinant ezrin protein was immmobilized on surface and total cell lysates from osteosarcoma cells were applied on top. Amount of PABP1 binding to ezrin on the surface was detected by a anti-PABP1 primary antibody followed by enzyme linked secondary antibody. (C) Immunoprecipitation and western experiment was prepared as described in panel A. Cells were treated with NSC305787 (compound 8) and NSC668394 (compound 16) for 60 min prior to immunoprecipitation. Both NSC305787 and NSC668394 inhibited interaction of PABP1 with ezrin

## OC(c1cc(C23CC4CC(CC(C4)C2)C3)nc2c(Cl)cc(Cl)cc12)C1CCCCN1 (stereo not drawn) [NSC305787]
Zebrafish embryos; 10 μM
  embryos with epiboly defects: 15%
Zebrafish embryos; 20 μM
  embryos with epiboly defects: 100%
MNNG, human OS cells; MNNG cells
  number of GFP expressing metastatic foci in lung tissues: not a significant difference
MNNG, human OS cells; MNNG cells by tail vein, i.p. 5 days a week, vehicle 50.5 days
  median survival after tumor cell injection: 49 days
[1]
  pKd: 5.23
[2]
  interaction of PABP1 with ezrin: inhibited
